In patent US20180057580A1, “ANTI-GREMLIN-1 (GREM1) ANTIBODIES AND METHODS OF USE THEREOF FOR TREATING PULMONARY ARTERIAL HYPERTENSION” (priority 2016, published 2018):

B1: H4H6245P: fully human anti-GREM1 antibody, HCVR/LCVR SEQ ID NOs 434/442; relation to H4H6245P2 not stated (antibody, V domains shown)
VH: EVQLVESGGGLVQPGGSLRLSCAASGFTFNSFWMSWVRQAPGKGLEWVANIKQDGSEKYYVDSVKGRFTISRDNAKNSVYLQMNSLRAEDTAVYYCARDLVTSFDYWGQGTLVTVSS
VL: DIQMTQSPSSLSASVGDRVTITCQASQDINNYLNWYQQKPGKAPKLLIYDASYLETGVPSGFSGSGSGTDFTFTISSLQPEDIATYYCQQYDSLPYTFGQGTKLEIK

Columns and labels:
[1] = system: Sugen 5416/chronic hypoxia mouse model; assay: Study 3: 6 weeks Sugen5416/chronic hypoxia mouse model of pulmonary hypertension, ultrasound assessment; type: in vivo
Procedure: Eleven to thirteen week old Taconic C57BL/6 mice were used. Mice were separated into treatment groups by weight such that starting body weights were similar among different groups. Cages were selected to either remain at about 21% O2 (normobaric normoxia) or placed into 10% O2 (normobaric hypoxia) chamber (a modified 3′ Semi-Rigid Isolator unit, Charles River) that maintained low O2 levels with adjustment of N2 flow to a steady intake of room air. Mice were administered Sugen5416 (Sigma, Cat#58442; VEGFR inhibitor subcutaneously at 20 mg/kg weekly for 6 weeks) and drugs or saline starting on day 21. A group of mice (n=10) housed in normobaric normoxia cages were subcutaneously administered saline at 5 mL/kg twice per week for three weeks, while mice housed in normobaric hypoxia cages were separated into 5 treatment groups including a group of mice (n=10) subcutaneously treated with saline at 5 mL/kg twice per week for three weeks, a group of mice (n=9) orally administered Bosentan (Sequoia Research Products Cat SRP02325b) at 300 mg/kg every day for three weeks, a group of mice (n=10) subcutaneously administered an isotype control antibody at 25 mg/kg twice per week for three weeks, a group of mice (n=10) subcutaneously treated with the anti-Gremlin-1 antibody at 25 mg/kg twice a week for three weeks, a group of mice (n=9) subcutaneously treated with an anti-Gremlin-1 antibody at 25 mg/kg twice a week for three weeks and orally administered Bosentan at 300 mg/kg every day for three weeks. [table] On the last day of the study, pulmonary artery size and right ventricular function and dimensions were assessed in each mouse using a high frequency ultrasound system (Vevo 2100, VisualSonics). For the assessment, mice were anesthetized (with 1.5% isoflurane at a rate of 1.0 cc/mL of medical grade air) and their temperature was monitored with a rectal temperature probe and held at approximately 37° C. with a heated platform (MouseMonitorS, Indus Instruments) and a warming lamp. Both brightness-mode (B-mode) and motion-mode (M-mode) imaging were used. B-mode imaging of the mouse heart in cross-section was used to determine pulmonary artery cross-sectional area (PA CSA) at the level of the pulmonary valve. M-mode imaging was used to determine the pulsed wave velocity time integral (VTI), which is derived from the area under the curve of representative Doppler tracings of blood flow through the pulmonary artery. Right ventricular stroke volume (RV SV) was calculated from the product of PA CSA and VTI. Right ventricular cardiac output (RV CO) was calculated from the product of SV and heart rate (HR). M-mode imaging was used to determine right ventricular free wall (RVFW) thickness during diastole and systole. Animals were returned to their home cages before right ventricular pressure assessment.

[2] = system: chronic hypoxia-induced pulmonary arterial hypertension mouse model; assay: Study 1: 4 week chronic hypoxia mouse model of pulmonary arterial hypertension, ultrasound assessment; type: in vivo; conditions: study not given
Text: For both studies, eleven to thirteen-week-old Taconic C57BL/6 mice were used. Mice were separated into treatment groups by weight such that starting body weights were similar among different groups. Cages were selected to either remain at about 21% O2 (normobaric normoxia) or placed into a 10% O2 (normobaric hypoxia) chamber (a modified 3′ Semi-Rigid Isolator unit, Charles River) that maintained low O2 levels with adjustment of N2 flow to a steady intake of room air.
For the first study (Study 1), mice were administered drugs or saline starting on day 14. […]
On the last day of each study, pulmonary artery size and right ventricular function and dimensions were assessed in each mouse using a high frequency ultrasound system (Vevo 2100, VisualSonics). For the assessment, mice were anesthetized (with 1.5% isoflurane at a rate of 1.0 cc/mL of medical grade air) and their temperature was monitored with a rectal temperature probe and held at approximately 37° C. with a heated platform (MouseMonitorS, Indus Instruments) and a warming lamp. […] Right ventricular stroke volume (RV SV) was calculated from the product of PA CSA and VTI. Right ventricular cardiac output (RV CO) was calculated from the product of SV and heart rate (HR). […]

[3] = Study 3, normobaric hypoxia + Sugen5416 6 weeks, 300 mg/kg PO daily from day 21

Molecule | PA CSA greater than hypoxic saline-treated group ([1]; Study 3, Sugen5416/hypoxia, 300 mg/kg PO daily, significant) | Heart rate (Ave ± SEM) [1, 3] | PA CSA (Ave ± SEM) [1, 3] | Right Ventricular cardiac output (Ave ± SEM) [1, 3] | Stroke Volume (Ave ± SEM) [1, 3] | Pulmonary artery size (cross-sectional area), result in words ([2]; FIG. 1A legend) | Right ventricular stroke volume, result in words ([2]; FIG. 1B legend)
COc1ccccc1Oc1c(NS(=O)(=O)c2ccc(C(C)(C)C)cc2)nc(-c2ncccn2)nc1OCCO [Bosentan] | ~43% | 509.7 ± 18.9 beats/min | 1.724 ± 0.074^%%% mm^2 | 17.81 ± 1.46^%% ml/min | 35.51 ± 3.22^%% ul |  | 
B1 |  |  |  |  |  | near normoxic levels | near normoxic levels
